Results on one sequence are retold here after patent US7786258B2, “Methods for inhibiting immune complex formation in a subject” (Trinity Therapeutics, Inc., priority 2004, dated 2010).

One assay deals with human monomeric IgG. The assay can be described thus: Inhibition of RF binding to monomeric IgG by additional peptides (Example 7). The settings on record: peptides pre-incubated 1 hour with monomeric IgG, then 200 I.U. RF; positive control 1.312. The protocol:
The ability of additional peptides to inhibit RF binding to monomeric IgG was tested. A standard rheumatoid factor commercial test was used (Research Diagnostics, New Jersey) with the following modifications: 100 μl of test peptides were pre-incubated for 1 hour with human monomeric IgG (Research Diagnostics, New Jersey). Plates were then washed and incubated with 200 I.U. of the RF positive control supplied with the test kit. The rest of the test was performed according to the manufacturer's instructions.

The next assay deals with C1q. Description: Inhibition of C1q binding to immune complexes using additional peptides (Example 6). Set-up: species or system human. The protocol:
The C1q/PAP and peptide/PAP mixtures (100 μl) were incubated with C1q coated plates for 30 minutes. After washing, plates were incubated with ATBS (Quidel Corp.) for 15 minutes and read at 405 nm.

The test system of a further assay is MBP. The protocol:
Inhibition of MBP binding: MBP (Sigma) was diluted 1:10 with coating buffer (Alpha Diagnostic International) and incubated for 24 hours on Falcon microtiter plates. Plates were washed and then blocked with 5× BSA blocking buffer (Alpha Diagnostic International) for 24 hours. Rabbit 1:10 PAP immune complexes were pre-incubated with equal amounts of peptide or MBP for 30 minutes. One hundred μl of PAP immune complexes/peptide or PAP/MBP was then added to the MBP-coated plates and incubated for one hour. The plates were washed and incubated with TMB substrate (Alpha Diagnostic International) for 30 minutes. After adding stop solution (Alpha Diagnostic International), the plates were read at 450 nm.
Further experiments were conducted to determine the effect of SEQ ID NO:47 (also referred to as NB-406) on binding of MBP to IgG PAP immune complexes.

Another assay relates to FcγIII. Description: Inhibition of FcR binding to PAP by additional peptides, FcγIII coated plates (Example 8). To be noted: OD read at 405 nm; positive control 1.588. The protocol: (§1) Falcon microtiter plates were coated with 1:10 dilutions of highly purified FcγIIa, FcγIIb and FcγIII, sealed, and incubated for […] at 4° C. […] PAP immune complexes were formed as described in Example 5. PAP (100 μl) were pre-incubated with 100 μl of peptide for one hour. PAP/peptide mixtures were added to the FcR coated plates and incubated for one hour. After washing, plates were incubated with ABTS substrate for 15 minutes and read at 405 nm.

The subject of a further assay is FcγIIb. Description: Inhibition of FcR binding to PAP by additional peptides, FcγIIb coated plates (Example 8). The settings on record: OD read at 405 nm; positive control 1.394. The procedure: as §1
Another assay deals with RF. Description: Inhibition of RF binding to immune complexes using additional peptides (Example 5). The procedure:
The ability of additional peptides to inhibit the binding of RF to immune complexes was tested. Immune complexes (PAP) were formed by mixing 2 μl of rabbit anti-peroxidase with 50 μl of peroxidase in 1 ml distilled water. PAP (100 μl) were pre-incubated with 100 μl of peptide for one hour. Plates coated with RF were blocked with 5× BSA for 24 hours. The PAP/peptide mixtures (100 μl) were incubated with the RF coated plates for 30 minutes. RF (100 μl of a 200 I.U. standard supplied by Research Diagnostics) was used as a negative control. After washing and incubation with ABTS substrate (Quidel Corp., San Diego, Calif.) for 15 minutes, plates were read at 405 nm.

The next assay concerns histone. Description: Inhibition of histone binding: PAP immune complexes on histone-coated plates (Example 3). The protocol: Inhibition of histone binding: The binding of immune complexes to the kidneys in lupus nephritis appears to involve (a) the binding of histones to the GBM, and then (b) the binding of immune complexes (through the IgG Fc CH2-CH3 cleft) to the bound histones. Experiments similar to those described above were used to inhibit binding of purified histone to IgG Fc binding. Histone (Sigma) was diluted 1:10 in coating buffer (Alpha Diagnostic International) and incubated on Falcon microtiter plates for 24 hours. Plates were blocked with 5× BSA blocking solution (Alpha Diagnostic International) for 24 hours. Freshly prepared 1:10 rabbit PAP (Sigma) was pre-incubated with either peptides or histone for one hour, and 100 μl of the mixture was added to the histone-coated plates for one hour. Plates were incubated with ABTS substrate (Quidel Corp.) for 45 minutes, and OD 405 was read.

Another assay concerns FcγIIa. The assay can be described thus: Inhibition of FcR binding to PAP by additional peptides, FcγIIa coated plates (Example 8). The procedure: as §1

With “APPDCAWHLGELVWCT (Synthetically generated polypeptide)”, the “OD 405 nm” value in the assay on human monomeric IgG is reported as 1.065; in the assay on C1q (PAP pre-incubated with peptide or human C1q one hour, C1q coated plates, positive control 2.355) it was 0.389; in the assay on MBP (Table 7 experiment, IgG PAP immune complexes, positive control 2.343) it was 0.500; in the assay on FcγIIb, 0.496; in the assay with RF (PAP pre-incubated with peptide one hour, RF coated plates, positive control 1.176) it was 0.205; in the assay on histone (Table 5 experiment, IgG PAP immune complexes, positive control 2.110) it was 0.227. In addition, in the assay with FcγIIa (OD read at 405 nm, positive control 1.599), the “OD 405 nm” value is 0.509. Moreover, the “inhibition of C1q binding, in words” value in the assay with C1q (Table 11) is reported as “greatest inhibition”. The “inhibition of MBP binding to immune complexes, in words” value in the assay on MBP (text on Tables 6 and 7) is recorded as “able to inhibit”. For the same sequence, the “OD at 405 nm” value in the assay with FcγIII is 0.670. For the same sequence, in the assay on RF (Table 10), the “inhibition of RF binding to immune complexes, in words” value is “best inhibition”. The “inhibition of histone binding to immune complexes, in words” value in the assay with histone (text on Tables 4 and 5) is reported as “significantly inhibit”. The “inhibition of FcR binding to PAP, in words” value with FcγIIa (Table 13, statement for FcγIIa, FcγIIb and FcγIII together) is “greatest inhibition”.
